Test results from patent publication US12419874B2, “GLP-1R agonist compound and use thereof” (Chongqing Pharmaceutical Research Institute Co., Ltd., priority 2024, dated 2025).
pEC50: −log10 of the molar value.

Target: GLP-1R (Homo sapiens, UniProt P43220)
Test: GLP-1R agonistic activity by One-Lite luciferase assay in HEK293-GLP-1R-luc cells (Example 59)
Assay type: cell-based
Details: 6 h incubation, read-out: cAMP EC50
Experimental: The agonistic activities of the compounds of the present disclosure on GLP-1R were evaluated by detecting the generation of cAMP.
• (1) Cell line: HEK293-GLP-1R-luc Stable Cell Line (Cobioer, CBP71117); • (2) Culture medium: DMEM+10% FBS (Gibco); • (3) Kit: One-Lite™ kit Luciferase Assay System (Vazyme). 2. Experimental Procedures • (1) HEK293-GLP1R cells were inoculated in a 96-well plate at a density of 30000 cells per well; • (2) 10× working solution of each compound was formulated; • (3) 10 μL of 10× working solution of each compound was added to corresponding well and incubated at 37° C. for 6 h; • (4) 100 μL of One-Lite Luciferase Assay Substrate formulated using One-Lite Luciferase Assay Buffer was added to each well; • (5) The plate was incubated at room temperature for 3 min; • (6) The plate was read by a multimode microplate reader to detect chemiluminescence. 3. Data Analysis • (1) % Activity was calculated by the following formula: % Activity=100−(Signalcmpd−SignalAve-PC)/(SignalAve-VC−SignalAve-PC)×100 • (2) The dose-response curve was plotted to calculate EC50: Y=Bottom+(Top−Bottom)/(1+10^(Log EC50−X)*HillSlope)) • X: log of agonist concentration; Y: Activity. 4. Experimental Results

Sequence of GLP-1R (P43220 24-463): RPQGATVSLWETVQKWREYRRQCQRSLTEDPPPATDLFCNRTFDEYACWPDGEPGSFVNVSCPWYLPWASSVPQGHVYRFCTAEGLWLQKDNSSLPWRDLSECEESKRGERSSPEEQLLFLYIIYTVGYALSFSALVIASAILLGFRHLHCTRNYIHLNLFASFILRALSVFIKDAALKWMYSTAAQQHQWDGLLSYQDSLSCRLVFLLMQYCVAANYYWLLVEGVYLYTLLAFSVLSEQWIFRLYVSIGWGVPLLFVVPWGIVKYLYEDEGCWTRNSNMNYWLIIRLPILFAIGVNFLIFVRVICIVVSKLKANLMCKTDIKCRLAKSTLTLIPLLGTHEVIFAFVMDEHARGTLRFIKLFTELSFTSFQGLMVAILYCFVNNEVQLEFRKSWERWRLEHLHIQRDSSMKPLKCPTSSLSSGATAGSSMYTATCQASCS

| Compound | pEC50 |
| --- | --- |
| Cc1cc(-n2nc3c(c2-n2ccn(-c4ccc5c(cnn5C)c4F)c2=O)[C@H](C)N(C(=O)c2cc4cc([C@H]5CCOC(C)(C)C5)ccc4n2[C@@]2(c4noc(=O)[nH]4)C[C@@H]2C)CC32COC2)cc(C)c1F [Compound 21] | ≥ 7.70 |
| Cc1cc(-n2nc3c(c2-n2ccn(-c4ccc5c(cnn5C)c4F)c2=O)[C@H](C)N(C(=O)c2cc4cc([C@H]5CCOC(C)(C)C5)ccc4n2[C@@]2(c4noc(=O)[nH]4)C[C@@H]2C)CC32CC(O)C2)cc(C)c1F (stereo partly shown) [Compound 181] | ≥ 7.70 |
| C[C@H]1c2c(nn(-c3ccc(F)c(C4CC4)c3)c2-n2ccn(-c3ccc4c(cnn4C)c3F)c2=O)C2(CC2)CN1C(=O)c1cc2cc([C@H]3CCOC(C)(C)C3)ccc2n1C1(c2noc(=O)[nH]2)CC1 [Compound 170] | ≥ 7.70 |
| Cc1cc(-n2nc3c(c2-n2ccn(-c4ccc5c(cnn5C)c4F)c2=O)[C@H](C)N(C(=O)c2cc4cc([C@H]5CCOC(C)(C)C5)ccc4n2C2(c4noc(=O)[nH]4)CC2)CC32CC2)cc(C)c1F [Compound 169] | ≥ 7.70 |
| Cc1cc(-n2nc3c(c2-n2ccn(-c4ccc5c(cnn5C)c4F)c2=O)[C@H](C)N(C(=O)c2cc4cc([C@H]5CCOC(C)(C)C5)ccc4n2[C@@]2(c4noc(=O)[nH]4)C[C@@H]2C)CC32CNC2)cc(C)c1F [Compound 15] | ≥ 7.70 |
| Cc1cc(-n2nc3c(c2-n2ccn(-c4ccc5c(cnn5C)c4F)c2=O)[C@H](C)N(C(=O)c2cc4cc([C@H]5CCOC(C)(C)C5)ccc4n2[C@@]2(c4noc(=O)[nH]4)C[C@@H]2C)CC32CCC(=O)CC2)cc(C)c1F [Compound 198] | ≥ 7.70 |
| CCn1ncc2c(F)c(-n3ccn(-c4c5c(nn4-c4cc(C)c(F)c(C)c4)C4(CC4)CN(C(=O)c4cc6cc([C@H]7CCOC(C)(C)C7)ccc6n4[C@@]4(c6noc(=O)[nH]6)C[C@@H]4C)[C@H]5C)c3=O)ccc21 [Compound 222] | ≥ 7.70 |
| Cc1cc(-n2nc3c(c2-n2ccn(-c4ccc5c(cnn5C)c4F)c2=O)[C@H](C)N(C(=O)c2cc4cc([C@H]5CCOC(C)(C)C5)ccc4n2[C@@]2(c4noc(=O)[nH]4)C[C@@H]2C)CC32CC(F)C2)cc(C)c1F (stereo partly shown) [Compound 182] | ≥ 7.70 |
| COC1CCC2(CC1)CN(C(=O)c1cc3cc([C@H]4CCOC(C)(C)C4)ccc3n1[C@@]1(c3noc(=O)[nH]3)C[C@@H]1C)[C@@H](C)c1c2nn(-c2cc(C)c(F)c(C)c2)c1-n1ccn(-c2ccc3c(cnn3C)c2F)c1=O (stereo partly shown) [Compound 202] | ≥ 7.70 |
| Cc1cc(-n2nc3c(c2-n2ccn(-c4ccc5c(cnn5C)c4F)c2=O)[C@H](C)N(C(=O)c2cc4cc([C@H]5CCOC(C)(C)C5)ccc4n2[C@@]2(c4noc(=O)[nH]4)C[C@@H]2C)CC32CCCC2)cc(C)c1F [Compound 25] | ≥ 7.70 |
| Cc1cc(-n2nc3c(c2-n2ccn(-c4ccc5c(cnn5C)c4F)c2=O)[C@H](C)N(C(=O)c2cc4cc([C@H]5CCOC(C)(C)C5)ccc4n2[C@@]2(c4noc(=O)[nH]4)C[C@@H]2C)CC32CC=CC2)cc(C)c1F [Compound 172] | ≥ 7.70 |
| Cc1cc(-n2nc3c(c2-n2ccn(-c4ccc5c(cnn5C)c4F)c2=O)[C@H](C)N(C(=O)c2cc4cc([C@H]5CCOC(C)(C)C5)ccc4n2[C@@]2(c4noc(=O)[nH]4)C[C@@H]2C)CC32CCC(F)(F)CC2)cc(C)c1F [Compound 200] | 7.00 to 7.70 |
| Cc1cc(-n2nc3c(c2-n2ccn(-c4ccc5c(cnn5C)c4F)c2=O)[C@H](C)N(C(=O)c2cc4cc([C@H]5CCOC(C)(C)C5)ccc4n2[C@@]2(c4noc(=O)[nH]4)C[C@@H]2C)CC32CC(OC(F)F)C2)cc(C)c1F (stereo partly shown) [Compound 194] | ≥ 7.70 |
| Cc1cc(-n2nc3c(c2-n2ccn(-c4ccc5c(cnn5C)c4F)c2=O)[C@H](C)N(C(=O)c2cc4cc([C@H]5CCOC(C)(C)C5)ccc4n2[C@@]2(c4noc(=O)[nH]4)C[C@@H]2C)CC32CC(OC(C)C)C2)cc(C)c1F (stereo partly shown) [Compound 192] | ≥ 7.70 |

Further lines, results first:

| pEC50 | Compound |
| --- | --- |
| ≥ 7.70 | Cc1cc(-n2nc3c(c2-n2ccn(-c4ccc5c(cnn5C)c4F)c2=O)[C@H](C)N(C(=O)c2cc4cc([C@H]5CCOC(C)(C)C5)ccc4n2[C@@]2(c4noc(=O)[nH]4)C[C@@H]2C)CC32CSC2)cc(C)c1F [Compound 189] |
| ≥ 7.70 | C[C@H]1c2c(nn(-c3ccc(F)c(C4CC4)c3)c2-n2ccn(-c3ccc4c(cnn4C)c3F)c2=O)C2(CC2)CN1C(=O)c1cc2cc([C@H]3CCOC(C)(C)C3)ccc2n1[C@@]1(c2noc(=O)[nH]2)C[C@@H]1C [Compound 171] |
| ≥ 7.70 | Cc1cc(-n2nc3c(c2-n2ccn(-c4ccc5c(cnn5C)c4F)c2=O)[C@H](C)N(C(=O)c2cc4cc([C@H]5CCOC(C)(C)C5)ccc4n2[C@@]2(c4noc(=O)[nH]4)C[C@@H]2C)CC32CCOC2)cc(C)c1F (stereo partly shown) [Compound 29] |
| ≥ 7.70 | Cc1cc(-n2nc3c(c2-n2ccn(-c4ccc5c(cnn5C)c4F)c2=O)[C@H](C)N(C(=O)c2cn4cc(C5CCOC(C)(C)C5)ccc4c2C2(c4noc(=O)[nH]4)CC2)CC32CC2)cc(C)c1F (stereo partly shown) [Compound 196] |
| ≥ 7.70 | Cc1cc(-n2nc3c(c2-n2ccn(-c4ccc5c(cnn5C)c4F)c2=O)[C@H](C)N(C(=O)c2cc4cc([C@H]5CCOC(C)(C)C5)ccc4n2[C@@]2(c4noc(=O)[nH]4)C[C@@H]2C)CC32CCN(C(=O)C3CC3)CC2)cc(C)c1F [Compound 157] |
| ≥ 7.70 | Cc1cc(-n2nc3c(c2-n2ccn(-c4ccc5c(cnn5C)c4F)c2=O)[C@H](C)N(C(=O)c2cc4cc([C@H]5CCOC(C)(C)C5)ccc4n2[C@@]2(c4noc(=O)[nH]4)C[C@@H]2C)CC32CN(S(C)(=O)=O)C2)cc(C)c1F [Compound 168] |
| 7.00 to 7.70 | Cc1cc(-n2nc3c(c2-n2ccn(-c4ccc5c(cnn5C)c4F)c2=O)[C@H](C)N(C(=O)c2cc4cc([C@H]5CCOC(C)(C)C5)ccc4n2[C@@]2(c4noc(=O)[nH]4)C[C@@H]2C)CC32C[C@@H]2C)cc(C)c1F (stereo partly shown) [Compound 227] |
| ≥ 7.70 | Cc1cc(-n2nc3c(c2-n2ccn(-c4ccc5c(cnn5C)c4F)c2=O)[C@H](C)N(C(=O)c2cc4cc([C@H]5CCOC(C)(C)C5)ccc4n2[C@@]2(c4noc(=O)[nH]4)C[C@@H]2C)CC32CC(C)C2)cc(C)c1F (stereo partly shown) [Compound 219] |
| ≥ 7.70 | Cc1cc(-n2nc3c(c2-n2ccn(-c4ccc5c(cnn5C)c4F)c2=O)[C@H](C)N(C(=O)c2cc4cc([C@H]5CCOC(C)(C)C5)ccc4n2[C@@]2(c4noc(=O)[nH]4)C[C@@H]2C)CC32CCN(C)C2)cc(C)c1F (stereo partly shown) [Compound 79] |
| ≥ 7.70 | Cc1cc(-n2nc3c(c2-n2ccn(-c4ccc5c(cnn5C)c4F)c2=O)[C@H](C)N(C(=O)c2cc4cc([C@H]5CCOC(C)(C)C5)ccc4n2[C@@]2(c4noc(=O)[nH]4)C[C@@H]2C)CC32CN(C)C2)cc(C)c1F [Compound 164] |
| ≥ 7.70 | Cc1cc(-n2nc3c(c2-n2ccn(-c4ccc5c(ccn5C)c4F)c2=O)[C@H](C)N(C(=O)c2cc4cc([C@H]5CCOC(C)(C)C5)ccc4n2[C@@]2(c4noc(=O)[nH]4)C[C@@H]2C)CC32CCCNC2)cc(C)c1F (single isomer, unassigned) [Compound 51-A] |
| ≥ 7.70 | Cc1cc(-n2nc3c(c2-n2ccn(-c4ccc5c(cnn5C)c4F)c2=O)[C@H](C)N(C(=O)c2cc4cc([C@H]5CCOC(C)(C)C5)ccc4n2[C@@]2(c4noc(=O)[nH]4)C[C@@H]2C)CC32CCN(C(=O)CN)CC2)cc(C)c1F [Compound 161] |
| ≥ 7.70 | Cc1cc(-n2nc3c(c2-n2ccn(-c4ccc5c(cnn5C)c4F)c2=O)[C@H](C)N(C(=O)c2cc4cc([C@H]5CCOC(C)(C)C5)ccc4n2[C@@]2(c4noc(=O)[nH]4)C[C@@H]2C)CC32CCN(C(=O)[C@H](C)N)CC2)cc(C)c1F [Compound 160] |
| ≥ 7.70 | COC1CCC2(C1)CN(C(=O)c1cc3cc([C@H]4CCOC(C)(C)C4)ccc3n1[C@@]1(c3noc(=O)[nH]3)C[C@@H]1C)[C@@H](C)c1c2nn(-c2cc(C)c(F)c(C)c2)c1-n1ccn(-c2ccc3c(cnn3C)c2F)c1=O (stereo partly shown) [Compound 210] |
| ≥ 7.70 | Cc1cc(-n2nc3c(c2-n2ccn(-c4ccc5c(cnn5C)c4F)c2=O)[C@H](C)N(C(=O)c2cc4cc([C@H]5CCOC(C)(C)C5)ccc4n2[C@@]2(c4noc(=O)[nH]4)C[C@@H]2C)CC32C=CCC2)cc(C)c1F (stereo partly shown) [Compound 197] |
| 7.00 to 7.70 | C[C@H]1c2c(nn(-c3ccc(F)c(C4CC4)c3)c2-n2ccn(-c3ccc4c(cnn4C)c3F)c2=O)C2(CC2)CN1C(=O)c1cc2cc(C3CCOC(C)(C)C3)ccn2c1C1(c2noc(=O)[nH]2)CC1 (single isomer, unassigned) [Compound 186-B] |
| ≥ 7.70 | Cc1cc(-n2nc3c(c2-n2ccn(-c4ccc5c(cnn5C)c4F)c2=O)[C@H](C)N(C(=O)c2cc4cc([C@H]5CCOC(C)(C)C5)ccc4n2[C@@]2(c4noc(=O)[nH]4)C[C@@H]2C)CC32CC=CCC2)cc(C)c1F (stereo partly shown) [Compound 203] |
| 7.00 to 7.70 | Cc1cc(-n2nc3c(c2-n2ccn(-c4ccc5nn(CC(F)(F)F)cc5c4F)c2=O)[C@H](C)N(C(=O)c2cc4cc([C@H]5CCOC(C)(C)C5)ccc4n2[C@@]2(c4noc(=O)[nH]4)C[C@@H]2C)CC32CC2)cc(C)c1F [Compound 224] |
| ≥ 7.70 | CNC1CCC2(C1)CN(C(=O)c1cc3cc([C@H]4CCOC(C)(C)C4)ccc3n1[C@@]1(c3noc(=O)[nH]3)C[C@@H]1C)[C@@H](C)c1c2nn(-c2cc(C)c(F)c(C)c2)c1-n1ccn(-c2ccc3c(cnn3C)c2F)c1=O (stereo partly shown) [Compound 229] |
| ≥ 7.70 | Cc1cc(-n2nc3c(c2-n2ccn(-c4ccc5c(cnn5C)c4F)c2=O)[C@H](C)N(C(=O)c2cc4cc([C@H]5CCOC(C)(C)C5)ccc4n2[C@@]2(c4noc(=O)[nH]4)C[C@@H]2C)CC32CCN(S(C)(=O)=O)CC2)cc(C)c1F [Compound 156] |
